Assay results: paper PMC11367644, “Structural basis for TNIP1 binding to FIP200 during mitophagy” (The Journal of Biological Chemistry, 2024)
Square brackets hold non-standard residues; d marks the D form. Peptide text beside a SMILES is read from it. pS = N[C@@H](COP(=O)(O)O)C(=O)O

Assays:
[1] = molecular target: T1, FIP200 claw domain K1569A (Homo sapiens, UniProt Q8TDY2, K1569A); assay: ITC with FIP200 claw domain mutant K1569A; settings: 20 °C, buffer B pH 7.0, N.D. = no detectable binding
T1 construct: human FIP200 claw domain1490–1594 was cloned; SUMO (N, cleaved yes); made in house; host or cells: Escherichia coli Rosetta (DE3)
T1 sequence (Q8TDY2 1490-1594 K1569A): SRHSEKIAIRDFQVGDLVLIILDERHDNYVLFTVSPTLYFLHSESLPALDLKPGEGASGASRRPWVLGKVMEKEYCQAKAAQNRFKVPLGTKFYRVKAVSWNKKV
Protocol: (§1) DNA fragment of human FIP200 claw domain1490–1594 was cloned into a modified pET28a (Novagen) plasmid, which contained an N-terminal SUMO-tag and a ULP1 protease cleavage site. All mutants were generated using a MutanBEST Kit (TaKaRa) and confirmed by DNA sequencing. The proteins were expressed in Escherichia coli Rosetta (DE3) cells (Novagen) cultured in LB medium at 37 °C to A600 = 1.0 and then shifted to 16 °C for 24 h after induction with 0.2 mM IPTG. Bacterial pellets were resuspended in buffer A (50 mM NaH2PO4 and 1 M NaCl, pH 7.0) and lysed by sonication. The crude lysate was then centrifuged at 14,000 rpm for 30 min at 4 °C. The supernatant was applied to a Ni-NTA column (QIAGEN), followed by size-exclusion chromatography using a Superdex 200 (GE Healthcare) column. After cleavage with ULP1 protease overnight at 16 °C to remove the SUMO-tag, an additional purification step was performed with a HiTrap SP FF column. The purified protein was concentrated to ∼20 mg/ml in buffer B (50 mM NaH2PO4, 150 mM NaCl, pH 7.0) and stored at −80 °C.
(§2) ITC assays were performed on a Microcal PEAQ-ITC instrument (Malvern) at 20 °C. The concentrations of proteins were determined spectrophotometrically. […] Thermodynamic data were analyzed with a single binding site model using MicroCal PEAQ-ITC Analysis Software provided by the manufacturer (Malvern).

[2] = molecular target: T2, FIP200 claw domain K1568E (Homo sapiens, UniProt Q8TDY2, K1568E); assay: ITC with FIP200 claw domain mutant K1568E; settings: 20 °C, buffer B pH 7.0, N.D. = no detectable binding
T2 construct: human FIP200 claw domain1490–1594 was cloned; SUMO (N, cleaved yes); made in house; host or cells: Escherichia coli Rosetta (DE3)
T2 sequence (Q8TDY2 1490-1594 K1568E): as the sequence (Q8TDY2 1490-1594 K1569A) above, with K79E, A80K counted along it
Protocol: as §1, §2

KD [1]: Weak binding | KD [2]: Weak binding
SMILES: CC(C)[C@H](NC(=O)[C@H](CCC(=O)O)NC(=O)[C@H](Cc1ccccc1)NC(=O)[C@H](CCC(=O)O)NC(=O)[C@H](COP(=O)(O)O)NC(=O)[C@H](CO)NC(=O)[C@@H](NC(=O)CNC(=O)[C@H](CO)NC(=O)[C@@H](N)CO)[C@@H](C)O)C(=O)N[C@H](C(=O)N[C@H](C(=O)N1CCC[C@H]1C(=O)N[C@@H](CCC(=O)O)C(=O)N[C@@H](CCC(=O)O)C(=O)N[C@@H](CCC(N)=O)C(=O)O)[C@@H](C)O)C(C)C [TNIP1_pS123^ long] (H-SSGTS[pS]EFEVVTPEEQ-OH)
